Measurements as given in article PMC2916745 (Journal of medicinal chemistry, 2010).

Experiments:
[1] = system: tamoxifen-resistant breast tumors; details: cited from earlier work
[2] = target: human ERβ (Homo sapiens, UniProt Q92731); assay: competitive radiometric binding assay with [3H]estradiol, ERβ
[3] = target: T1, human ERα (Homo sapiens, UniProt P03372); assay: competitive radiometric binding assay with [3H]estradiol, ERα; details: relative binding affinity, IC50[estradiol]/IC50[compound] × 100, estradiol = 100; 10 nM [3H]estradiol, 18-24 h at 0 °C; average ± range or SD
T1 sequence (P03372 1-595): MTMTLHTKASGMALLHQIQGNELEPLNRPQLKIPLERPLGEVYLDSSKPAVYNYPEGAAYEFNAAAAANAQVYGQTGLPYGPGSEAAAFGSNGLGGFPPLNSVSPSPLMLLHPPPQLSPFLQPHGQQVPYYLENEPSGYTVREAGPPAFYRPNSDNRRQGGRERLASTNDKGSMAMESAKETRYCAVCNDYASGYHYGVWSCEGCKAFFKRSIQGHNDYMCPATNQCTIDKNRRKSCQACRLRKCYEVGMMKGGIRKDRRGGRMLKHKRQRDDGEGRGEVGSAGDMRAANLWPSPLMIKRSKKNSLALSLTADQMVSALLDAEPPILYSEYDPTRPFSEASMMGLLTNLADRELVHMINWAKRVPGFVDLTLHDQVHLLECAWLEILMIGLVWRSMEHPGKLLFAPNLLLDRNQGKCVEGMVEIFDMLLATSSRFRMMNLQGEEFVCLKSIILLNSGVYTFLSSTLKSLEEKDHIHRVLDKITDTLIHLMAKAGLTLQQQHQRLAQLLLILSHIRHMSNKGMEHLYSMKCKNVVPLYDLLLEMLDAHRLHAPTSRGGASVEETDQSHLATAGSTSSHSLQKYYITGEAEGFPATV

[4] = system: ERα-target genes; assay: real-time PCR analysis of ERα target genes in MCF-7 cells; format: cell-based, human; details: 1 μM compound, 1 nM E2, RNA level
[5] = cited from earlier work
[6] = system: tamoxifen-resistant breast cancer cells; details: cited from earlier work
[7] = Figure 6B, not fully reversed to control

human ERβ, sequence (Q92731 whole entry): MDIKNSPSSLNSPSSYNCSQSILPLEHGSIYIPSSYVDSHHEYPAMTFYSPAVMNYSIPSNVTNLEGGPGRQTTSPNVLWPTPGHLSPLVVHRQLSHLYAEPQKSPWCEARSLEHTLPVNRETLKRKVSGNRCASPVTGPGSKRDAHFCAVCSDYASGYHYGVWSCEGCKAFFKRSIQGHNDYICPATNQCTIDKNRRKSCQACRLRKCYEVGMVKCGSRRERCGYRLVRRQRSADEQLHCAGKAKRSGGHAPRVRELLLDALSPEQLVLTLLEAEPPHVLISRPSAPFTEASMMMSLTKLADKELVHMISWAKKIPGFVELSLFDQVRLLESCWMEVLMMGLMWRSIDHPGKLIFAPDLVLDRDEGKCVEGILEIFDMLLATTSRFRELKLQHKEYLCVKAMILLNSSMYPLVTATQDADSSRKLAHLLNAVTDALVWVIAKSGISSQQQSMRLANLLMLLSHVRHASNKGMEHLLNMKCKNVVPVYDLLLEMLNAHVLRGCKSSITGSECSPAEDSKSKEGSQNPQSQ

CC/C(=C(\c1ccccc1)c1ccc(/C=C/C(=O)O)cc1)c1ccccc1 [Compound 1]
growth of tamoxifen-resistant breast tumors [1]: can inhibit

CC(=O)Oc1ccc(C(=C2CCCCC2)c2ccc(OC(C)=O)cc2)cc1 [Compound 2, cyclofenil]
β/α ([2]; ratio of RBA values, >1 for higher affinity on ERβ than on ERα): 4.9 | RBA ERβ ([2]; relative binding affinity, IC50[estradiol]/IC50[compound] × 100, estradiol = 100, 10 nM [3H]estradiol, 18-24 h at 0 °C, average ± range or SD): 334 ± 54 | RBA ERα [3]: 68 ± 18

CC/C(=C(\c1ccc(O)cc1)c1ccc(/C=C/C(=O)O)cc1)c1ccccc1 [Compound 4]
E2-mediated activation of the CA12 gene ([4]; Figure 6A): most effective | E2-mediated stimulation of the PR gene ([4]; Figure 6A): significantly blocked | E2-mediated stimulation of the pS2 gene ([4]; Figure 6A): significantly blocked | E2-mediated repression of BLNK gene expression [4, 7]: reduce | E2-mediated repression of ENC1 gene expression [4, 7]: reduce

C[C@]12CC[C@@H]3c4ccc(O)cc4C[C@@H](CCCCCCCCC[S+]([O-])CCCC(F)(F)C(F)(F)F)[C@H]3[C@@H]1CC[C@@H]2O (some centres unmarked) [ICI 182,780]
oral bioavailability [5]: poor | growth of tamoxifen-resistant breast cancer cells [6]: capable of inhibiting
